# In patent US5342922A, “Inhibitors of retroviral protease” (Washington University, priority 1989, dated 1994):
# Numbered stars: 1 amine (or outer) side, 2 acyl side, 3 side chain; on linkers, the order of the positions; unused ones are H or OH. Square brackets hold non-standard residues; d marks the D form. Peptide text beside a SMILES is read from it. LeuΨ(CH2N)Pro = CC(C)C[C@@H](CN1CCC[C@H]1C(=O)[*:2])N[*:1]; X1 = O=C([C@@H]1CCCN1C[C@H](Cc1ccc(O)cc1)N[*:1])[*:2]; X2 = O=C([C@@H]1CCCN1C[C@H](Cc1ccccc1)N[*:1])[*:2]; X3 = CCCC[C@@H](CN(C)[C@@H](CCCC)C(=O)[*:2])N[*:1]; X4 = C[C@@H](CN1CCC[C@H]1C(=O)[*:2])N[*:1]
# Molecular target: T1, HIV protease (Human immunodeficiency virus type 1 group M subtype B, UniProt P04585)
# Test: HIV protease assay, inhibition of cleavage of acetyl-Thr-Ile-Met-Met-Gln-Arg-NH2 (HPLC)
# Type: biochemical, HIV-1
# Details: affinities not fully characterized, classified by comparative inhibition studies; read-out: KI (affinity category)
row,Molecule,Ki [µM]
1,CCCC[C@@H](CN[C@@H](CCCC)C(=O)N[C@H](C(=O)N[C@H](C(N)=O)[C@@H](C)O)[C@@H](C)CC)NC(=O)[C@H](CCC(N)=O)NC(=O)[C@H](CCCNC(=N)N)NC(C)=O [Ac--Arg--Gln--Nle-.PSI.[CH2 NH]--Nle--Ile--Thr--NH2],1 to 100
2,CCCC[C@@H](CN[C@@H](CCCC)C(=O)N[C@@H](CCC(N)=O)C(=O)N[C@@H](CCCNC(=N)N)C(N)=O)NC(=O)[C@@H](NC(=O)[C@H](NC(C)=O)[C@H](C)O)[C@@H](C)CC [Ac--D--Thr--Ile--Nle-.PSI.[CH2 NH]--Nle--Gln--Arg--NH2],1 to 100
3,CC(=O)NCC(=O)N[C@@H](CC(N)=O)C(=O)N[C@@H](Cc1ccc(O)cc1)CN1CCC[C@H]1C(=O)N[C@H](C(=O)N[C@@H](CCC(N)=O)C(N)=O)C(C)C [Ac--Gly--Asn--Tyr-.PSI.[CH2 N]--Pro--Val--Gln--NH2] (Ac-GN[X1]VQ-NH2),1 to 100
4,CC(=O)N[C@@H](CC(C)C)C(=O)N[C@@H](C)C(=O)N[C@@H](C)CN1CCC[C@H]1C(=O)N[C@@H](CCC(N)=O)C(=O)N[C@@H](Cc1ccccc1)C(N)=O [Ac--Leu--Ala--Ala-.PSI.[CH2 N]--Pro--Gln--Phe--NH2] (Ac-LA[X4]QF-NH2),> 100
5,CC[C@H](C)[C@H](NC(=O)[C@@H]1CCCN1C[C@H](Cc1ccccc1)NC(=O)[C@H](CC(N)=O)NC(=O)[C@H](CC(C)C)NC(C)=O)C(=O)N[C@@H](CO)C(=O)O [Ac--Leu--Asn--Phe-.psi.[CH2 N]--Pro--Ile--Ser--OH] (Ac-LN[X2]IS-OH),1 to 100
6,CC[C@H](C)[C@H](NC(=O)[C@H](CCC(N)=O)NC(=O)[C@@H]1CCCN1C[C@H](Cc1ccccc1)NC(=O)[C@H](CC(N)=O)NC(=O)[C@H](Cc1ccccc1)NC(C)=O)C(N)=O [Ac--Phe--Asn--Phe-.PSI.[CH2 N]--Pro--Gln--Ile--NH2] (Ac-FN[X2]QI-NH2),1 to 100
7,CC[C@H](C)[C@H](NC(=O)[C@H](CCC(N)=O)NC(=O)[C@@H]1CCCN1C[C@H](Cc1ccccc1)NC(=O)[C@H](CC(N)=O)NC(=O)[C@H](Cc1ccccc1)NC(=O)[C@H](CO)NC(C)=O)C(N)=O [Ac--Ser--Phe--Asn--Phe-.PSI.[CH2 N]--Pro--Gln--Ile--NH2] (Ac-SFN[X2]QI-NH2),1 to 100
8,CCCC[C@@H](CN[C@@H](CC1CCCCC1)C(=O)N[C@@H](CCC(N)=O)C(=O)N[C@@H](CCCNC(=N)N)C(N)=O)NC(=O)[C@@H](NC(=O)[C@@H](NC(C)=O)[C@@H](C)O)[C@@H](C)CC [Ac--Thr--Ile--Nle-.PSI.[CH2 NH]--Cha--Gln--Arg--NH2],< 1
9,CCCC[C@@H](CN[C@H](C(=O)N[C@@H](CCC(N)=O)C(=O)N[C@@H](CCCNC(=N)N)C(N)=O)[C@@H](C)CC)NC(=O)[C@@H](NC(=O)[C@@H](NC(C)=O)[C@@H](C)O)[C@@H](C)CC [Ac--Thr--Ile--Nle-.PSI.[CH2 NH]--Ile--Gln--Arg--NH2],< 1
10,CCCC[C@@H](CN[C@@H](CCCC)C(=O)N[C@@H](CCC(N)=O)C(=O)N[C@H](CCCNC(=N)N)C(N)=O)NC(=O)[C@@H](NC(=O)[C@@H](NC(C)=O)[C@@H](C)O)[C@@H](C)CC [Ac--Thr--Ile--Nle-.PSI.[CH2 NH]--Nle--Gln--D--Arg--NH2],1 to 100
11,CCCC[C@@H](CN[C@@H](CCCC)C(=O)N[C@@H](CCC(N)=O)C(N)=O)NC(=O)[C@@H](NC(=O)[C@@H](NC(C)=O)[C@@H](C)O)[C@@H](C)CC [Ac--Thr--Ile--Nle-.PSI.[CH2 NH]--Nle--Gln--NH2],1 to 100
12,CCCC[C@@H](CN[C@@H](CCCC)C(=O)N[C@@H](CCC(N)=O)C(=O)N[C@@H](CCC)C(N)=O)NC(=O)[C@@H](NC(=O)[C@@H](NC(C)=O)[C@@H](C)O)[C@@H](C)CC [Ac--Thr--Ile--Nle-.PSI.[CH2 NH]--Nle--Gln--Nva--NH2],1 to 100
13,CCCC[C@@H](CN(C)[C@@H](CCCC)C(=O)N[C@@H](CCC(N)=O)C(=O)N[C@@H](CCCNC(=N)N)C(N)=O)NC(=O)[C@@H](NC(=O)[C@@H](NC(C)=O)[C@@H](C)O)[C@@H](C)CC [Ac--Thr--Ile--Nle-.psi.[CH2 NH]--MeNle--Gln--Arg--NH2] (Ac-TI[X3]QR-NH2),> 100
14,CCCC[C@@H](CNC1(C(=O)N[C@@H](CCC(N)=O)C(=O)N[C@@H](CCCNC(=N)N)C(N)=O)CCCC1)NC(=O)[C@@H](NC(=O)[C@@H](NC(C)=O)[C@@H](C)O)[C@@H](C)CC [Ac--Thr--lle--Nle-.PSI.[CH2 NH]--Cle--Gln--Arg--NH2],> 100
15,CCCC[C@@H](CN[C@@H](CC(C)C)C(=O)N[C@@H](CCC(N)=O)C(=O)N[C@@H](CCCNC(=N)N)C(N)=O)NC(=O)[C@@H](NC(=O)[C@@H](NC(C)=O)[C@@H](C)O)[C@@H](C)CC [Ac--Thr--lle--Nle-.PSI.[CH2 NH]--Leu--Gln--Arg--NH2],< 1
16,CCCC[C@@H](CN[C@@H](Cc1ccccc1)C(=O)N[C@@H](CCC(N)=O)C(=O)N[C@@H](CCCNC(=N)N)C(N)=O)NC(=O)[C@@H](NC(=O)[C@@H](NC(C)=O)[C@@H](C)O)[C@@H](C)CC [Ac--Thr--lle--Nle-.PSI.[CH2 NH]--Phe--Gln--Arg--NH2],< 1
17,CC[C@H](C)[C@H](NC(=O)[C@@H]1CCCN1C[C@H](Cc1ccccc1)NC(=O)[C@H](CC(N)=O)NC(=O)[C@H](CC(C)C)NC(=O)[C@@H](N)[C@@H](C)O)C(=O)N[C@@H](CO)C(=O)O [H2 N--Thr--Leu--Asn--Phe-.PSI.[CH2 N]--Pro--Ile--Ser--OH] (H-TLN[X2]IS-OH),1 to 100

# Same assay, conditions: in vitro inhibition of HIV protease, pH 6.5, 25°; read-out: KI
row,Molecule,Ki [µM]
1,CC[C@H](C)[C@H](NC(=O)[C@@H]1CCCN1C[C@H](Cc1ccc(O)cc1)NC(=O)[C@H](CC(N)=O)NC(=O)[C@H](CCC(N)=O)NC(C)=O)C(=O)N[C@H](C(N)=O)C(C)C [Ac--Gln--Asn--Tyr-.PSI.[CH2 N]--Pro--Ile--Val--NH2] (Ac-QN[X1]IV-NH2),17.2
2,CC[C@H](C)[C@H](NC(=O)[C@@H](NC(C)=O)[C@@H](C)O)C(=O)N[C@H](CN[C@@H](CC(C)C)C(=O)N[C@@H](CCC(N)=O)C(=O)N[C@@H](CCCNC(=N)N)C(N)=O)CC(C)C [Ac--Thr--lle--Leu-.PSI.[CH2 NH]--Leu--Gln--Arg--NH2],0.734
3,CC(C)C[C@@H](CN1CCC[C@H]1C(=O)N[C@H](C(=O)N[C@@H](C)C(=O)O)C(C)C)NC(=O)[C@H](CC(N)=O)NC(=O)[C@H](CC(C)C)NC(=O)[C@@H](N)CO [H2 N--Ser--Leu--Asn--Leu-.PSI.[CH2 N]--Pro--Val--Ala--OH] (H-SLN[LeuΨ(CH2N)Pro]VA-OH),13.1

# Molecular target: T1, HIV protease
# Test: HIV protease assay, substrate cleavage (relative hydrolysis rates, Km, Vmax)
# Type: biochemical, HIV-1
# Details: percent of standard substrate concentration cleaved in twenty minutes, relative to Ac-Thr-Ile-Met-Met-Gln-Arg-NH2 = 1.00
row,Molecule,Relative Rate
1,Aba--Thr--Ile--Nle--PnF--Gln--Arg--NH2,1.46
2,Ac--Thr--Ile--Nle--Hle--Gln--Arg--NH2,0.95
3,Ac-QNYPIV-NH2 [Ac--Gln--Asn--Tyr--Pro--Ile--Val--NH2],0.04
4,Ac-TIMMQR-NH2 [Ac--Thr--Ile--Met--Met--Gln--Arg--NH2],1.00

# Same assay, conditions: substrate of HIV protease
row,Molecule,Vmax [nmol/min/mg]
1,Ac-TIMMQR-NH2 [Ac--Thr--Ile--Met--Met--Gln--Arg--NH2],725

# System: CD4+ human lymphocyte cells (H9 cells)
# Test: not given
# Details: preliminary
row,Molecule,toxicity as measured by cell count
1,CC[C@H](C)[C@H](NC(=O)[C@@H]1CCCN1C[C@H](Cc1ccc(O)cc1)NC(=O)[C@H](CC(N)=O)NC(=O)[C@H](CCC(N)=O)NC(C)=O)C(=O)N[C@H](C(N)=O)C(C)C [Ac--Gln--Asn--Tyr-.PSI.[CH2 N]--Pro--Ile--Val--NH2] (Ac-QN[X1]IV-NH2),no apparent toxicity
2,CCCC[C@@H](CN[C@@H](CCCC)C(=O)N[C@@H](CCC(N)=O)C(=O)N[C@@H](CCCNC(=N)N)C(N)=O)NC(=O)[C@@H](NC(=O)[C@@H](NC(C)=O)[C@@H](C)O)[C@@H](C)CC [Ac--Thr--Ile--Nle-.PSI.[CH2 NH]--Nle--Gln--Arg--NH2],no apparent toxicity

# Molecular target: T1, HIV protease
# Test: not given
# Details: Darke et al. 1988; cited from earlier work
Molecule,cleavage by HIV protease,Km [µM]
QNY-PIV,failed to be cleaved,–
SQNY-PI,failed to be cleaved,–
VSQNYPIV,–,2500
acetyl-QNY-PIV,failed to be cleaved,–

# Same assay, conditions: Darke et al. 1988; of the rate of VSQNYPIV; cited from earlier work
row,Molecule,cleavage rate relative to the octapeptide [%]
1,SQNY-PIV,90
